Values of other authors, collected in article PMC7709506 (ESMO Open, 2020).

Settings: patients, phase I/II trial; cited from earlier work

SMILES: CNC(=O)c1cccc2cc(Oc3ccnc4cc(OCC5(N)CC5)c(OC)cc34)ccc12 [lucitanib]
- Hypertension: 91%
- grade 3 hypertension events: 57%
